According to patent publication US6020342A, “Fused imidazo[1,2-A]pyridines” (Shinnippon Pharmaceutical, Inc., priority 1995, dated 2000):

Key:
[1] = tested on: gastric acid secretion; test: Inhibition of Gastric Acid Secretion Observed Under Acute Fistula Method; format: in vivo, male Wistar rats; conditions: Rattus norvegicus; 30 mg/kg intraduodenally, rats, histamine 10 mg/kg s.c., cumulative 2 h
Experimental: Inhibition of Gastric Acid Secretion Observed Under Acute Fistula Method
Male Wistar rats (6-8 weeks) fasted for 24 hours (water ad libitum) were used. The rats were anesthetized by intraperitoneal administration of 1.25 g/kg of urethane. The abdomen was incised, and acute gastric fistula was connected to the stomach. Two ml of saline was injected into the stomach, and recovered every 20 minutes. The gastric acid secretion was determined by titrating of gastric juice by 150 mM sodium hydroxide up to pH7.0 using an autotitrator. Test compounds (30 mg/kg) suspended in a 0.5% aqueous sodium carboxymethylcellulose (CMC-Na) solution were administered intraduodenally. After 1 hour, gastric acid secretion was stimulated by subcutaneous administration of histamine dihydrochloride dissolved in saline (10 mg/kg). Inhibition (%) of gastric acid secretion was determined by calculating cumulative amount of the acid secretion during two hours after histamine stimulation and then comparing the cumulative amount with that in the control group. In the control group, only 0.5% aqueous CMC-Na solution was administered intraduodenally.

[2] = tested on: gastric acid secretion; test: Inhibition of Gastric Acid Secretion Observed Under Stomach Perfusion Method; format: in vivo, male Sprague Dawrey rats; conditions: Rattus norvegicus, ip, 1 h; rats, histamine i.v. 8 mg/kg/hr, inhibition one hour after administration (1-10 mg/kg, "intrapenetorially"); read-out: ID50 (dose showing 50% inhibition of acid secretion)
Experimental: Inhibition of Gastric Acid Secretion Observed Under Stomach Perfusion Method
Male Sprague Dawrey rats (6-7weeks) fasted for 24 hours were used (water ad libitum). The rats were anesthetized by intraperitoneal administration of 1.25 g/kg of urethane. The abdomen was incised, and gastral cavity was perfused with saline during experiment. The perfusate was titrated by 10 mM sodium hydroxide up to pH5.5 using an autotitrator in accordance with Stat-method. Gastric acid secretion was stimulated by intravenous administration of histamine dihydrochloride (8 mg/kg/hr). Two hours after histamine stimulation, a test compound 1-10 mg/kg) was administered intrapenetorially. The test compound was mixed with small amount of polysorbate-80, and the mixture was suspended in saline. The test compound was evaluated using ID50 (dose showing 50% inhibition of acid secretion) which was calculated based on inhibition of the acid secretion observed one hour after administration of the compound.

[3] = set-up: species or system male ICR mice; conditions: mouse, in vivo, po, 10080 min
Experimental: Male ICR mice (6 weeks, 3 mice per group) fasted for 16 hours were used ad libitum). A test compound suspended in 5% aqueous gum arabic solution was orally administered. After administration, mortality of the animals observed during 7 days and approximate lethal dose was determined.

[4] = target: T1, H^+ /K^+ -ATPase (Sus scrofa, UniProt P19156); test: Inhibitory Action on H^+ /K^+ -ATPase Activity; format: biochemical; conditions: microsome fraction from porcine gastric mucosa, pH7.4, 37° C., 30 min preincubation, 15 min reaction
T1 construct: a microsome fraction prepared from porcine gastric mucosa was used as a standard enzyme; from tissue; host or cells: porcine gastric mucosa, microsome fraction
Experimental: Inhibitory Action on H^+ /K^+ -ATPase Activity
According to the method of Hongo et al. [The Japanese Journal of Pharmacology, 52, p295, (1990)], a microsome fraction prepared from porcine gastric mucosa was used as a standard enzyme. The standard enzyme (10-20lig protein) and the test compound (0.1-100 μM) dissolved in dimethylsulfoxide was incubated at 37° C. for 30 minutes in the 50 mM Tris-acetate buffer (pH7.4, containing 2 mM magnesium chloride, 5 mM potassium chloride). The enzyme reaction was started by adding adenosinetriphosphate (ATP). Tris at the final concentration of 2 mM, and the reaction was kept at 37° C. for 15 minutes. The reaction was stopped by adding chilled 10% trichloroacetic acid. Inorganic phosphate released during the reaction was calorimetrically determined according to the method of Fiske-Subbarow [The Journal of Biological Chemistry, 66, p375, (1925)]. H^+ /K^+ -ATPase activity was determined by the difference of the enzyme activities under the conditions with or without potassium chloride. The inhibitory activities of test compounds were determined as the 50% inhibitory concentration (IC50 value) from reaction-concentration curve, and the results are shown in Table 3.

[5] = tested on: ethanol-induced gastric lesion; test: Inhibition of Ethanol-induced Gastric Lesion (Protection of gastric mucosa); format: in vivo, male Wister rats; conditions: Rattus norvegicus, po, 1 h; 30 mg/kg orally, rats, ethanol 0.5 ml/100 g
Experimental: Inhibition of Ethanol-induced Gastric Lesion (Protection of gastric mucosa)
Male Wister rats (6-7weeks, 5 rats per group) fasted for 24 hours were used (water ad libitum). Test compound (30 mg/kg) suspended in 0.5% aqueous CMC-Na solution was orally administered. In the control group, only 0.5% aqueous CMC-Na solution was administered. Thirty minutes after administration, 0.5 ml/100 g body weight of ethanol was orally administered to cause gastric lesion. After one hour, the rat was killed by excessive amount of ether, and the stomach was removed and fixed with 2% formalin. After fixation, the stomach was dissected along the large curvature. The size of each of mucosal lesions was measured under dissecting microscope, and the total size of the lesions per rat was determined and used as ulcer index (mm). Inhibition of gastric lesion was determined by comparing the ulcer index in the control group and test group.

T1 sequence (P19156 2-1034 limits assumed): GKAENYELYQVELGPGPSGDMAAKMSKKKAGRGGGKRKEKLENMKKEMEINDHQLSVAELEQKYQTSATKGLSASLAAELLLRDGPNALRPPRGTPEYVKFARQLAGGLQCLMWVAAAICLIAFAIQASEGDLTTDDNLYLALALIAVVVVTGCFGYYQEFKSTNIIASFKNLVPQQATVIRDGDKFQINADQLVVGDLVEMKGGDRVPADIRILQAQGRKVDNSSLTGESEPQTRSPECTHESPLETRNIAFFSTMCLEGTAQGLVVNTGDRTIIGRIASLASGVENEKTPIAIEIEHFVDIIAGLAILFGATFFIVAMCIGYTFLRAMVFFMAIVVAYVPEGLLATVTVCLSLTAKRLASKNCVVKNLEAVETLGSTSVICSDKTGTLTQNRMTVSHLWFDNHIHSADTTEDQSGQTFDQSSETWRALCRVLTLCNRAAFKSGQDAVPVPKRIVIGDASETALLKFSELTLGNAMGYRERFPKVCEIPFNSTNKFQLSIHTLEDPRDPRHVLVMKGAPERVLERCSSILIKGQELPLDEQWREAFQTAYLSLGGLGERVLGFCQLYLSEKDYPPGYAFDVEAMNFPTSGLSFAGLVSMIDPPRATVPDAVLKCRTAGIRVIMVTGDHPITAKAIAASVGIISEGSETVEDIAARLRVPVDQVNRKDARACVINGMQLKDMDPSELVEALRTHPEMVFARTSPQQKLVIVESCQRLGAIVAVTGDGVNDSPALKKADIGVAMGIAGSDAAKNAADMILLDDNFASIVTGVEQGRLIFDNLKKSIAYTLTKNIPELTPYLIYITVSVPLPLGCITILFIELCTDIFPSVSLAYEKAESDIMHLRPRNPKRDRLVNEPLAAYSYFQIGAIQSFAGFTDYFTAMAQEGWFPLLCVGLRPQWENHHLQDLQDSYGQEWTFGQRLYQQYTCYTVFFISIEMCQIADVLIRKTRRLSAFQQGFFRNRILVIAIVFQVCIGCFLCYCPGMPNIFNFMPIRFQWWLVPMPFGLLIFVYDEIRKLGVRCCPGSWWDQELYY
T1 sequence (P18434 whole entry partner): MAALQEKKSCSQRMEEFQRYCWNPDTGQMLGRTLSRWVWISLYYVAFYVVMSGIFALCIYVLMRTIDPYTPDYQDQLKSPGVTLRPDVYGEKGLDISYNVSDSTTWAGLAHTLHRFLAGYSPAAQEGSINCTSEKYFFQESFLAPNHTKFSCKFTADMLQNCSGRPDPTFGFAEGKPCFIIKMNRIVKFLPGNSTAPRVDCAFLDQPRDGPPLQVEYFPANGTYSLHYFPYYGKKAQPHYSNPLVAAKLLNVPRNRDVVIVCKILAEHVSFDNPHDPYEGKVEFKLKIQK

Compound | inhibition in vivo at 30 mg/kg [1] [%] | ED50 [2] [mg/kg] | Approximate lethal dose [3] | IC50 [4] [µM] | inhibition in vivo at 30 mg/kg [5] [%]
Cc1ccccc1-c1nc2c3ccccc3ccn2c1N [Compound 3, 3-Amino-2-(2-methylphenyl)imidazo[2,1-a]isoquinoline] | 82.2 | 3.4 | > 2,000 mg/kg | 26 | 73.5
CCNc1c(-c2ccccc2C)nc2c3ccccc3ccn12 [Compound 158, 3-Ethylamino-2-(2-methylphenyl)imidazo[2,1-a]isoquinoline] | 83.6 | 8.6 | > 2,000 mg/kg | 13 | 92.4
CCNc1c(-c2ccccc2C)nc2c3ccccc3c(OC)cn12 [Compound 166, 3-Ethylamino-6-methoxy-2-(2-methylphenyl)imidazo[2,1-a]isoquinoline] | 54.9 | – | > 2,000 mg/kg | 23 | 49.7
C=CCNc1c(-c2ccccc2C)nc2c3ccccc3ccn12 [Compound 221, 3-allylamino-2-(2-methylphenyl)imidazo[2,1-a]isoquinoline] | 66.7 | – | > 2,000 mg/kg | – | 73.7
C=CCN(CC)c1c(-c2ccccc2C)nc2c3ccccc3ccn12 [Compound 222, 3-(N-Allyl-N-ethylamino)-2-(2-methylphenyl)imidazo[2,1-a]isoquinoline] | 72.6 | – | > 2,000 mg/kg | 2 | 98.8
